Reference: patent US20140234868A1, “USE FOR GLYCOLIPOPROTEIN GINTONIN, ISOLATED AND IDENTIFIED FROM GINSENG, AS A NATURAL MEDICAL-PLANT DERIVED LIGAND” (KONKUK UNIVERSITY INDUSTRIAL COOPERATION CORP., priority 2011, published 2014)

Experiments:
LPA receptor = experiment: Gintonin-induced intracellular Ca2+ increase in LPA receptor-expressing B103 cells (subtype not named); assay type: cell-based, human; conditions: pretreated
Description: Optionally, the method may further comprise (8) pre-treating the suspended B103 cells with LPA receptor antagonists and LPA receptor-mediated signaling-relevant drugs (e.g., pertussis toxin, PLC inhibitors, IP3 receptor antagonists) to examine whether the cells decrease or increase in intracellular free Ca^2+, prior to treatment with gintonin; (9) performing site-directed mutagenesis to identify an amino acid of LPA receptors with which gintonin interact to activate the LPA; and (10) examining whether gintonin activates orphan GPCRs including GPR35 and GPR87, and free fatty acid GPCRs including GPR40, GPR41, GPR43 and GPR120, all known for activation by LPA.
In this Example, gintonin, or ginsenoside Rb1 or Rg1 was examined for its ability to induce a transient increase of [Ca^2+]i in Fura-2AM-loaded B103 cells which were transfected with LPA receptors and in Fura-2AM-loaded B103 cells which were not transfected with LPA receptors. […]
(§1) Briefly, Fura 2-AM loaded cells were diluted with an experimental medium to a final density of 2˜4×10^6 cells/mL, and transferred to polystyrene cuvettes (Elkay Ultra-VU). […] Emission was detected at 510 nm Excitation and emission slit widths were 5 nm Background calibration was performed as described by Jørgensen et al.

BKCaK+ channels = experiment: BKCa K+ channel activity in Xenopus oocytes, two-electrode voltage clamp; assay type: cell-based; conditions: 2-APB 100 μM, BAPTA-AM, PMA 1 μM; for effect on gintonin-induced BKCaK+ channel activation: Kil6425 10 μM, U73122, U73343 1 μM; for effect on ginsenoside Rg3-induced BKCaK+ channel activity: U73122 1 μM
Experimental: (§2) Xenopus laevis frogs were obtained from Xenopus I (Ann Arbor, Mich.). Their care and handling were in accordance with the highest standards of institutional guidelines. To isolate oocytes, the frogs were operated on under anesthesia with an aerated solution of 3-aminobenzoic acid ethyl ester. Oocytes were separated by treatment with collagenase and agitation for two hours in a Ca^2+-free medium containing 82.5 mM NaCl, 2 mM KCl, 1 mM MgCl2, 5 mM HEPES, 2.5 mM sodium pyruvate, 100 units/ml penicillin and 100 μg/ml streptomycin.
(§3) Stage V-VI oocytes were collected and stored in ND96 (96 mM NaCl, 2 mM KCl, 1 mM MgCl2, 1.8 mM CaCl2, and 5 mM HEPES, pH 7.4) supplemented with 50 μg/ml gentamicin. This oocyte containing solution was maintained at 18° C. with continuous gentle shaking while the ND96 medium was changed with a fresh one every day.
Two-electrode voltage-clamp recordings were obtained from individual oocytes placed in a small Plexiglas net chamber (5 ml). Electrophysiological experiments were performed using microelectrodes filled with 3 M KCl (resistance of 0.2-0.7 MΩ) and an Oocyte Clamp amplifier (OC-725C; Warner Instrument, CT, USA) to record BKc K^+ channel activity at room temperature (Choi et al., Mol Cells 31, 133-140, 2011). For physiological recordings of BKCaK^+ channel activity, oocytes were first perfused with a Cl^−- and Ca^2+-free solution (mM: 96 NaOH, 2 KOH, 8 Mg-gluconate, 5 HEPES, 5 EGTA, pH 7.4 with methanesulfonic acid) supplemented with 500 μM anthracene-9-carboxylic acid, a Cl^− channel blocker, to block endogenous Cl-channels (Lu et al., J. Biol. Chem. 265, 16190-16194.1990). Then, the oocytes were clamped at −80 mV holding potential, followed by step depolarization from the holding potential to +40 mV at regular intervals of […] for 400 ms to record outward currents.

[1] = tested on: NMDA receptors (NR1 and NR2); experiment: NMDA receptor activity in Xenopus oocytes, two-electrode voltage clamp; assay type: cell-based; conditions: Kil6425 10 μM, 2-APB 100 μM, BAPTA 100 μM 3 h
Experimental: cDNAs of NMDA receptor subunits (NR1 and NR2) were employed (Zheng et al., J Neurosci. 17, 8676-8686, 1997). cDNAs (100 ng/40 nl) corresponding to respective NMDA receptor subunits (NR1 and NR2) were injected into animal or vegetal poles of oocytes by use of a […] (VWR Scientific, USA) and incubated for 4-5 days after injection (Zheng et al., J Neurosci. 17, 8676-8686, 1997).
as §2
as §3, with “changed to” for “changed with”
Two-electrode voltage-clamp recordings were obtained from individual oocytes placed in a small Plexiglas net chamber (5 ml). Electrophysiological experiments were performed using microelectrodes filled with 3 M KCl (resistance of 0.2-0.7 MΩ) and an Oocyte Clamp amplifier (OC-725C; Warner Instrument, Hamden, Conn.). For physiological recordings of NMDA receptor activity, oocytes were first perfused with Mg^2+-free ND96 (mM: 96 NaOH, 2 KOH, 0.3 CaCl2, 5 HEPES pH 7.6 with methanesulfonic acid). Then, the oocytes were clamped at −60 mV holding potential, followed by recoding NMDA currents (induced by administering […]) (Zheng et al., J Neurosci. 17, 8676-8686, 1997; Chang and Kuo, J Neurosci. 28, 1546-1556, 2008).

endogenous CaCC = experiment: Endogenous Ca2+-activated channel (CaCC) activation in Xenopus oocytes; assay type: cell-based, Xenopus laevis; conditions: Kil6425 10 μM; U73122 1 μM; 2-APB 100 μM; BAPTA 100 μM 3 h
[2] = tested on: LPA receptor-null B103 cells (empty vector); experiment: Intracellular free Ca2+ (Fura-2AM) in B103 cells transfected with empty vector; assay type: cell-based, rat; conditions: B103 cells not expressing LPA3 receptor
Description: LPA family receptors are endogenous to cells of most organs. B103 rat neuroblastoma cells, known as LPA receptor-null cells (Valentine et al., Biochim Biophys Acta 1780. 597-605) were transiently transfected with a plasmid (vector) carrying one of genes coding for LPA1(edg-2), LPA2(edg-4), LPA3(edg-7), LPA4, LPA5 and LPA6 receptors or a plasmid carrying none of them (empty vector). Two or three days after transfection, the cells are suspended, and made permeable. Then, the permeable cells are treated with Fura-2AM, a fluorescent dye binding to calcium, and then with gintonin, followed by spectrofluorephotometry to examine whether gintonin induces an increase in intracellular free Ca^2+ level. […]
as §1, with “al. […]” for “al.”

LPA3 receptor = biological target: T1, LPA3 receptor (Homo sapiens, UniProt Q9UBY5); experiment: Intracellular free Ca2+ (Fura-2AM) in LPA3-expressing B103 cells; assay type: cell-based; conditions: LPA3 receptor-expressing B103 cells; read-out: EC50, intracellular calcium increase
T1 construct: host or cells: B103 rat neuroblastoma cells
T1 sequence (Q9UBY5 1-353): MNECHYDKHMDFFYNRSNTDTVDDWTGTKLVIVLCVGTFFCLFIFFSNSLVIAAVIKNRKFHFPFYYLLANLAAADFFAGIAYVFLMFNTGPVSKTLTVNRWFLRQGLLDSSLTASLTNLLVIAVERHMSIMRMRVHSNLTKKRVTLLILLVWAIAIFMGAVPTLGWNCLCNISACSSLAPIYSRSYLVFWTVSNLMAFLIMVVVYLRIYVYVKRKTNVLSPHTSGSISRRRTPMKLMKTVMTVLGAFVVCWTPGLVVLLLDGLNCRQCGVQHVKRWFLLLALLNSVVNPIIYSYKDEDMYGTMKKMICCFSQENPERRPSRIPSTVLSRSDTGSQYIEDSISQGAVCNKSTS
Description: LPA family receptors are endogenous to cells of most organs. B103 rat neuroblastoma cells, known as LPA receptor-null cells (Valentine et al., Biochim Biophys Acta 1780. 597-605) were transiently transfected with a plasmid (vector) carrying one of genes coding for LPA1(edg-2), LPA2(edg-4), LPA3(edg-7), LPA4, LPA5 and LPA6 receptors or a plasmid carrying none of them (empty vector). Two or three days after transfection, the cells are suspended, and made permeable. Then, the permeable cells are treated with Fura-2AM, a fluorescent dye binding to calcium, and then with gintonin, followed by spectrofluorephotometry to examine whether gintonin induces an increase in intracellular free Ca^2+ level.
(1) preparing large quantities of plasmids carrying respective LPA family receptor genes and an empty plasmid carrying none of them through amplification and purification (maxi-preparation); (2) verifying the expression of LPA receptors wherein B103 cells are transfected with haematoglutin (HA)-tagged LPA receptors, and then subjected to Western blotting analysis using an anti-HA primary antibody and a horseradish peroxidase (HRP)-conjugated secondary antibody to develop a color; (3) verifying the expression of LPA receptors wherein B1-3 cells are transfected with haematoglutin (HA)-tagged LPA receptors, and then subjected to confocal laser microscopy using an anti-HA antibody and a fluorescence dye Cy3-conjugated secondary antibody; (4) transfecting the empty plasmid and each of the plasmids carrying LPA family receptor genes into B103 cells; (5) treating the transfected B103 cells with trypsin (0.05% trypsin with EDTA, w/v) 2-3 days post-transfection, to give a cell suspension; (6) culturing the suspended B103 cells with Fura-2AM (2.5 μM); and (7) treating the suspended B103 cells with gintonin and quantifying a change in intracellular free Ca^2+ level in a cuvette by spectrofluorephotometry using Fura-2AM.
Human LPA (lysophosphatidic acid) receptor subtypes, orphan GPCRs (G protein coupled receptors) and plasmids carrying GPCRs were purchased from Missouri S&T resource Center (www.cDNA.org).
The transient transfection of LPA receptor subtypes was carried out with the aid of Lipofectamine 2000 of Invitrogen. A plasmid (10.8 μg) carrying each LPA receptor (LPA1, LPA2, LPA3, LPA4, LPA5, and LPA6) was transfected into B103 cells grown in 10-cm dishes, and incubated for 2 days prior for use in experiments.
In this Example, gintonin, or ginsenoside Rb1 or Rg1 was examined for its ability to induce a transient increase of [Ca^2+]i in Fura-2AM-loaded B103 cells which were transfected with LPA receptors and in Fura-2AM-loaded B103 cells which were not transfected with LPA receptors. To this end, B103 cells (2˜4×10^6/ml) pre-treated with Fura-2AM were suspended in a 1.5 mM Ca^2+-containing buffer or Ca^2+-free buffer, and incubated 37° C. for 30 min, followed by analyzing intracellular calcium levels in the B103 cells in the presence of gintonin or ginsenosides.
Briefly, B103 cells (1˜2×10^6/ml) were mixed with 2.5 μM Fura 2-AM in a Ca^2+ buffer (pH 7.4) containing NaCl 120 mM, KCl 5 mM, MgCl2 1 mM, CaCl2 1.5 mM, glucose 10 mM, and HEPES 25 mM, and a Ca^2+ free buffer (pH 7.4) containing NaCl 120 mM, KCl 5 mM, MgCl2 1 mM, EGTA 0.2 mM, glucose 10 mM, and HEPES 25 mM at 37° C. for 30 min in water bath with shaking according to the Jørgensen method, and washed three times with Ca^2+ buffer or Ca^2+ free buffer to remove excess Fura-2AM.
[Ca^2+]i was estimated in Fura 2AM-loaded cells in suspension using an RF-5300PC intracellular ion measurement system (Shimadzu Corporation, Japan).
Briefly, Fura 2-AM loaded cells were diluted with an experimental medium to a final density of 2˜4×10^6 cells/mL, and transferred to polystyrene cuvettes (Elkay Ultra-VU). The cells were stirred using Teflon-coated magnets, and the cuvette housing was thermostatically controlled at 37° C. The excitation wavelengths were alternated between 340 and 380 nm under computer control. […]

EC50 (LPA3 receptor) [µM]	Compound	effect of pretreatment on gintonin-induced intracellular calcium increase (LPA receptor)	effect on gintonin-induced BKCaK+ channel activation (BKCaK+ channels)	effect on ginsenoside Rg3-induced BKCaK+ channel activity (BKCaK+ channels)	effect on NMDA-induced inward current ([1]; U73122 1 μM)	effect on gintonin-induced NMDA receptor activation ([1]; gintonin 1 μg/ml, U73122, U73343 1 μM, genistein 10 μM, PP2, PP3 30 μM)	effect on gintonin-induced CaCC activation (endogenous CaCC)	increase of intracellular calcium level [2]
	CCCCCCCCCCCCCC(=O)O[C@@H]1[C@@H](C)[C@@]2(O)[C@@H](C=C(CO)C[C@]3(O)C(=O)C(C)=C[C@@H]23)[C@@H]2C(C)(C)[C@]12OC(C)=O [PMA]	blocked	caused the gintonin-induced activation of BKCaK^+ channels to disappear	had no influences on the activity of ginsenoside Rg3				
	O=C(O)CN(CC(=O)O)c1ccccc1OCCOc1ccccc1N(CC(=O)O)CC(=O)O [BAPTA]	became invalid	a reduction in BKCaK^+ channel activation	not blocked	normal NMDA-induced inward currents	reduction	a reduction in gintonin-induced CaCC activation	
0.0589 ± 0.00554	lysophosphatidic acid [LPA, reference compound]							did not induce the increase of intracellular calcium level
